{
  "source": "patent US5175172A",
  "about": "“Method of alleviating AIDS symptoms and compositions therefor” (priority 1988, dated 1992)",
  "key": {"[1]": {"details": "reported by Byrne and Acie, British Med. J. 298 (1989) 845; cited from earlier work"}, "[2]": {"experiment": "Hepatotoxicity on administration of Tacrine (prior reports and applicants' studies)", "type": "in vivo", "details": "more recent studies by Applicants"}, "CEM cells": {"system": "CEM cells", "procedure": "The CEM lines utilized for the multiplication of the virus, as well as for the inhibition studies, was provided by Service of Francoise Barre-Sinoussi, at the Institute Pasteur. The culture medium is RPMI 1640, supplemented with 10% fetal calf serum, 2% glutamine and 1% antibiotics. The cells are counted and subcultured in a culture flask every 3 or 4 days. In certain cases, the fungicide amphotericin B is added in dosages of 5 μg./ml.\nThe HIV 1 virus was provided from the same source and grown on CEM cells in the culture described above. The infection is created with a supernatant on the culture at a dose level of 50,000 cpm per 10^6 cells.\nHealthy CEM cells were infected with HIV 1 virus at 40,000 cpm per 10^6 cells. After 7 days of infection at 37° C. an equal quantity of healthy cells are added, non-absorbed viruses removed and 5.10^5 cells/ml. and 5 ml. of medium are brought into the presence of THA.\nDuring 5 or 6 days, the cells are counted and the supernatant of the culture is recovered for evaluation of the reverse transcriptase activity, that is to say, to determine the production of HIV 1 virus liberated by the cells. The cells are subculture into fresh medium containing the inhibitor at different concentrations."}, "[3]": {"biological_target": "polymerase of Micrococcus Lysodecticus", "details": "read-out: Di50 for the inhibition of the DNA polymerase; specificity test, same concentrations as for reverse transcriptase", "excerpt": "In order to evaluate the specificity of THA, the effects on the reverse transcriptase and on a non-viral DNA polymerase, namely the polymerase of Micrococcus Lysodecticus have been compared at the same concentrations."}, "HIV": {"system": "HIV", "experiment": "Seven month follow-up of THA vs AZT in HIV infected patients (open study): clinical results", "type": "in vivo, human", "method": "Comparison of serological and clinical status of HIV infected patients after THA versus AZT treatment in an open study.\n70 patients (61 males, 11 females) with HIV infection (69 stage IV, 10 stages II and III), received either AZT (46 patients 600-1200 mg./day) or THA (26 patients 150-250 mg/day).\n13 patients were treated by THA alone, 20 by AZT alone, 26 by AZT then THA and 13 by THA then AZT. Mean duration of treatment was 5.8 months for 53 courses of AZT 5.4 months for 52 courses of THA."}},
  "note": "Read-outs that look alike come from different tables or passages of the source.",
  "data": [
    {"compound": "Nc1c2c(nc3ccccc13)CCCC2", "note": "[Tacrine, 9-Amino-1,2,3,4-tetrahydroacridine]", "values": [
      {"measurement": "Hepatotoxicity on long term administration", "setting": "[1]", "value": "long term administration of Tacrine is not practical because of hepatotoxicity"},
      {"measurement": "Hepatotoxicity with purified sources of Tacrine", "setting": "[2]", "value": "hepatotoxicity can be avoided by utilizing purified sources of Tacrine"},
      {"measurement": "Dose dependence of protective effect in CEM cultures", "setting": "CEM cells", "value": "dose-dependent"},
      {"measurement": "Proliferation of HIV 1 infected CEM cultures", "setting": "CEM cells; 1 μM THA", "value": "viral infection inhibits the proliferation"},
      {"measurement": "Proliferation of HIV 1 infected CEM cultures", "setting": "CEM cells; 5 μM THA", "value": "the cells multiply up to the 16th. day and then decline to be destroyed like the previous cultures right up to the 28th day"},
      {"measurement": "Proliferation of HIV 1 infected CEM cultures", "setting": "CEM cells; 10 μM THA", "value": "the cultures continue to proliferate right up to the 28th day"},
      {"measurement": "Protection of CEM cultures against lytic effect of HIV virus", "setting": "CEM cells; at the 5 μM and more particularly at the 10 μM level", "value": "protects CEM cultures against the lytic effect of the HIV virus"},
      {"measurement": "IC50", "setting": "[3]", "value": 1000, "unit": "µM"},
      {"measurement": "Deaths, number", "setting": "HIV; AZT n = 52, THA n = 51", "value": 0},
      {"measurement": "Kaposi Emergence, number", "setting": "HIV; AZT n = 52, THA n = 51", "value": 2},
      {"measurement": "Kaposi Emergence, percent", "setting": "HIV; AZT n = 52, THA n = 51", "value": 4, "unit": "%"},
      {"measurement": "Opportunistic Infections, number", "setting": "HIV; AZT n = 52, THA n = 51", "value": 3},
      {"measurement": "Opportunistic Infections, percent", "setting": "HIV; AZT n = 52, THA n = 51", "value": 6, "unit": "%"},
      {"measurement": "Deaths, significance p in comparison with AZT courses", "setting": "HIV; THA vs AZT courses", "value": "< 0.05"},
      {"measurement": "THA versus AZT course of treatment, conclusion", "setting": "HIV; after 6 months of treatment", "value": "decrease in Agp24 levels, mortality and incidences of opportunistic infections"}
    ]}
  ]
}
